Results reported in US10807993B2, “Dihydrochromene derivatives” (Sumitomo Dainippon Pharma Co., Ltd., priority 2018, dated 2020).
Where two headings read alike, the source gives them in different places.

Experiments:
[1] = molecular target: hERG (Homo sapiens (Human), UniProt Q12809); experiment: Test for evaluating hERG inhibition (QPatch HT, CHO cell strain stably expressing hERG); details: for hERG/HT-29: hERG IC50 (Test 2) divided by HT-29 sphere IC50 (Test 1); for deviation between the concentration of inhibiting 50% cell proliferation and the concentration of inhibiting 50% hERG current: summary in words of hERG/HT-29
Procedure: To a cultured CHO cell strain which stably expresses hERG was added each test compound to adjust the final concentration of DMSO to 0.0135 to 0.5%. The hERG current was measured with QPatch HT (Sophion Inc.), and the concentration at which 50% of the hERG current was inhibited by each test compound (IC50 value; μM) was calculated.
The compounds of Examples were tested according to Test 2. And, the hERG/HT-29 was calculated by dividing the compound concentration obtained in Test 2 (50% of the hERG current is inhibited) by the compound concentration obtained in Test 1 (50% of the proliferation of HT-29 cells is inhibited).

[2] = tested on: HT-29 cells; experiment: Inhibition test for sphere formation assay of cancer cells; type: cell-based; details: for IC50: sphere culture (ultra-low attachment, serum-free), 4 days, CellTiter-Glo, read-out: Sphere IC50 value (concentration for 50% inhibition of cell proliferation); for activity for inhibiting cell proliferation in the sphere culture condition: summary in words
Procedure: Reliable methods established for measuring the self-renewal ability of cells which is one of the CSC's properties include a method for measuring the sphere-forming ability of cancer cells in non-adherent condition in the absence of serum (Cancer Res 65, 5506-5511 (2005)). HT-29 cells were available from American Type Culture Collection (ATCC). HT-29 cells were cultured at 37° C. under 5% CO2 using the McCoy's 5a medium containing 10% fetal bovine serum (FBS) and 1% penicillin/streptomycin. HT-29 cells were seeded in a 384 Well Black Clear Bottom Ultra-Low Attachment Microplate (Corning Cat. No. 3827) in an amount of 350-800 cells/well using the DMEM/F12 medium containing 2% B27 supplement (GIBCO), 20 ng/mL epidermal growth factor (EGF) (peprotech), 10 ng/mL basic fibroblast growth factor (bFGF) (peprotech), 5 μg/mL insulin (Sigma), and 1% penicillin/streptomycin. Each test compound was added into each well to adjust the final concentration of DMSO to 0.1%, and the cells were cultured for 4 days. The number of viable cells in each well was then measured with CellTiter-Glo™ Luminescent Cell Viability Assay (Promega) to calculate the concentration of each test compound for 50% inhibition of cell proliferation (Sphere IC50 value; […])
The experiment of Test 1 was performed for each compound of each Example. The concentration of each test compound for 50% inhibition of cell proliferation (Sphere IC50 value; μmol/L) is shown in the following Table.

[3] = read-out: Binding inhibition (IC50, μM), concentration at which 50% of the hERG current was inhibited, CHO cells stably expressing hERG, QPatch HT

Sequence of hERG (Q12809 whole entry): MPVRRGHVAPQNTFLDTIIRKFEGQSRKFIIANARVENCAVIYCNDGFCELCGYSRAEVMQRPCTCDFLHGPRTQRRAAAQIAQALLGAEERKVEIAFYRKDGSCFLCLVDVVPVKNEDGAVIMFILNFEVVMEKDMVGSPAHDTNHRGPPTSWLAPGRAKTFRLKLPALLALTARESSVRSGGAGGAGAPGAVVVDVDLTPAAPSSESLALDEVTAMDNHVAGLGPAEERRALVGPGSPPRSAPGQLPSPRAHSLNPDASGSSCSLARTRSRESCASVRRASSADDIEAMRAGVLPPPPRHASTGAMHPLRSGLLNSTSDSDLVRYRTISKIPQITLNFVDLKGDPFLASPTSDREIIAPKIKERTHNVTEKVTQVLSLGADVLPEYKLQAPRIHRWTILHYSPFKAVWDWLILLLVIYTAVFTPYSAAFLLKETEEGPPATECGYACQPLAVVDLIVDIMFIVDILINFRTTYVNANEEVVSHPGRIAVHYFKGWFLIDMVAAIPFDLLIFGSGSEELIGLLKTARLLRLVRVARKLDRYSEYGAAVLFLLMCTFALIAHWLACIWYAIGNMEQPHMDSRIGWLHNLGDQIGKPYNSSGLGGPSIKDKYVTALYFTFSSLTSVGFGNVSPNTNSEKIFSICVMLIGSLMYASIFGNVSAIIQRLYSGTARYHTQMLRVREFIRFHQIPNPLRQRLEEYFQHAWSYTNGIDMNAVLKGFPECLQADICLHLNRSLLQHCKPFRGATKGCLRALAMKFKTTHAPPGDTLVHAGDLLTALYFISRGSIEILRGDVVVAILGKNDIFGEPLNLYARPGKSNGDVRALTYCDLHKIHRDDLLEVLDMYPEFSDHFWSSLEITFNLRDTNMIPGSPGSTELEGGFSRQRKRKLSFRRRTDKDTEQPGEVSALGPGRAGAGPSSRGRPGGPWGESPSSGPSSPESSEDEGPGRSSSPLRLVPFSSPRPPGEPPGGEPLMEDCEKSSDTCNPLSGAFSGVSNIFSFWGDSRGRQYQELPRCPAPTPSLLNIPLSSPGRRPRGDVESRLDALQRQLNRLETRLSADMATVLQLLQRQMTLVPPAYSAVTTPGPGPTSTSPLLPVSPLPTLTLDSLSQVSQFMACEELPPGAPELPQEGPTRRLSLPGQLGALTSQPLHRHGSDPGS

| Structure (SMILES) | IC50 [2] | hERG/HT-29 [1] | IC50 [1, 3] | deviation between the concentration of inhibiting 50% cell proliferation and the concentration of inhibiting 50% hERG current [1] | activity for inhibiting cell proliferation in the sphere culture condition [2] | IC50 [1] | IC50 ([2]; Homo sapiens, 96 h) |
| --- | --- | --- | --- | --- | --- | --- | --- |
| CC1(C)Oc2cc(Cl)ccc2C2OCC3(CCN(CCn4ccnc4CO)CC3)CC21 (centres unmarked) [Example 54] | < 10 nM | >140 | 1.4 µM | good deviation | potent activity | – | – |
| Cc1nccn1CC(=O)N1CCC2(CC1)COC1c3cc(Cl)ccc3OC(C)(C)C1C2 (racemic) [Example 1, Racemate of 1-[(4′aS,10′bS)-9′-chloro-5′,5′-dimethyl-4′a,10′b-dihydro-2′H,4′H,5′H-spiro[piperidine-4,3′-pyrano[3,2-c][1]benzopyran]-1-yl]-2-(2-methyl-1H-imidazol-1-yl)ethan-1-one and 1-[(4′aR,10′bR)-9′-chloro-5′,5′-dimethyl-4′a,10′b-dihydro-2′H, 4′H, 5′H-spiro[piperidine-4,3′-pyrano[3,2-c][1]benzopyran]-1-yl]-2-(2-methyl-1H-imidazol-1-yl)ethan-1-one] | – | – | – | – | – | < 0.3 µM | 80 nM |
| Cc1nccn1CCN1CCC2(CC1)COC1c3cc(Cl)ccc3OC(C)(C)C1C2 (centres unmarked) [Example 46] | – | >120 | 1.2 µM | good deviation | – | – | – |
| Cc1nc[nH]c1CN1CCC2(CC1)COC1c3ccc(Cl)cc3OCC1C2 (racemic) [Example 64, Racemate of (4′aS,10′bR)-8′-chloro-1-[(4-methyl-1H-imidazol-5-yl)methyl]-4′a,10′b-dihydro-2′H,4′H,5′H-spiro[piperidine-4,3′-pyrano[3,2-c][1]benzopyran] and (4′aR,10′bS)-8′-chloro-1-[(4-methyl-H-imidazol-5-yl)methyl]-4′a,10′b-dihydro-2′H,4′H,5′H-spiro[piperidine-4,3′-pyrano[3,2-c][1]benzopyran]] | – | 5.71 | – | – | – | 0.4 µM | 70 nM |
| Cc1nccn1CC(=O)N1CCC2(CC1)COC1c3cccc(Cl)c3OC(C)(C)C1C2 (centres unmarked) [Example 6] | 610 nM | – | < 0.3 µM | – | – | – | – |
| CC1(C)Oc2cc(Cl)ccc2C2OCC3(CCN(CCn4ccnc4)CC3)CC21 (centres unmarked) [Example 42] | < 10 nM | >140 | 1.4 µM | good deviation | potent activity | – | – |
| CC1(C)Oc2cc(Cl)ccc2C2OCC3(CCN(CCn4ccnc4)CC3)CC21 (centres unmarked) [Example 41] | < 10 nM | >70 | 0.7 µM | good deviation | potent activity | – | – |
| CC1(C)Oc2ccc(F)cc2C2OCC3(CCN(CCn4ccnc4)CC3)CC21 (centres unmarked) [Example 39] | < 10 nM | >100 | 1 µM | good deviation | potent activity | – | – |
| Cc1nc[nH]c1CN1CCC2(CC1)COC1c3cc(F)ccc3OC(C)(C)C1C2 (centres unmarked) [Example 21] | 210 nM | 7.14 | 1.5 µM | – | – | – | – |
| Cc1nccn1CCN1CCC2(CC1)COC1c3cc(Cl)ccc3OC(C)(C)C1C2 (centres unmarked) [Example 47] | < 10 nM | >190 | 1.9 µM | good deviation | potent activity | – | – |
| Cc1nc[nH]c1CN1CCC2(CC1)COC1c3cc(Cl)ccc3OC(C)(C)C1C2 (centres unmarked) [Example 25] | 70 nM | 5.7 | 0.4 µM | – | – | – | – |
| CC1(C)Oc2cc(Cl)ccc2C2OCC3(CCN(CCn4ccnc4CCN)CC3)CC21 (centres unmarked) [Example 62] | – | – | 6.3 µM | – | – | – | – |
| CC1(C)Oc2cc(Cl)ccc2C2OCC3(CCN(CCn4ccnc4)CC3)CC21 (racemic) [Example 38, Racemate of (4′aR,10′bR)-8′-chloro-1-[2-(1H-imidazol-1-yl)ethyl]-5′,5′-dimethyl-4′a,10′b-dihydro-2′H,4′H,5′H-spiro[piperidine-4,3′-pyrano[3,2-c][1]benzopyran] and (4′aS,10′bS)-8′-chloro-1-[2-(1H-imidazol-1-yl)ethyl]-5′,5′-dimethyl-4′a,10′b-dihydro-2′H,4′H,5′H-spiro[piperidine-4,3′-pyrano[3,2-c][1]benzopyran]] | – | >80 | – | good deviation | – | 0.8 µM | < 10 nM |
| Cc1nc[nH]c1CN1CCC2(CC1)COC1c3ccc(Cl)cc3OC(C)(C)C1C2 (racemic) [Example 18, Racemate of (4′aR,10′bR)-8′-chloro-5′,5′-dimethyl-1-[(4-methyl-1H-imidazol-5-yl)methyl]-4′a,10′b-dihydro-2′H,4′H,5′H-spiro[piperidine-4,3′-pyrano[3,2-c][1]benzopyran] and (4′aS,10′bS)-8′-chloro-5′,5′-dimethyl-1-[(4-methyl-1H-imidazol-5-yl)methyl]-4′a,10′b-dihydro-2′H,4′H,5′H-spiro[piperidine-4,3′-pyrano[3,2-c][1]benzopyran]] | – | 30 | – | – | – | 0.6 µM | 20 nM |

The next lines start with results.

| IC50 [2] | Structure (SMILES) | hERG/HT-29 [1] | IC50 [1, 3] | deviation between the concentration of inhibiting 50% cell proliferation and the concentration of inhibiting 50% hERG current [1] | activity for inhibiting cell proliferation in the sphere culture condition [2] | IC50 [1] | IC50 ([2]; Homo sapiens, 96 h) |
| --- | --- | --- | --- | --- | --- | --- | --- |
| 770 nM | Cc1nccn1CC(=O)N1CCC2(CC1)COC1c3cccc(Br)c3OC(C)(C)C1C2 (centres unmarked) [Example 9] | – | < 0.3 µM | – | – | – | – |
| 310 nM | Cc1nccn1CC(=O)N1CCC2(CC1)COC1c3cc(Cl)ccc3OC(C)(C)C1C2 (single isomer, unassigned) [Example 4] | – | < 0.3 µM | – | – | – | – |
| 210 nM | CC1(C)Oc2ccc(Cl)cc2C2OCC3(CCN(Cc4ncc[nH]4)CC3)CC21 (centres unmarked) [Example 35] | 16.7 | 3.5 µM | – | – | – | – |
| < 10 nM | CC1(C)Oc2ccc(F)cc2C2OCC3(CCN(CCn4ccnc4CO)CC3)CC21 (centres unmarked) [Example 52] | – | – | – | potent activity | – | – |
| 240 nM | Cc1nccn1CC(=O)N1CCC2(CC1)COC1c3cc(N=[N+]=[N-])ccc3OC(C)(C)C1C2 (centres unmarked) [Example 10] | – | < 0.3 µM | – | – | – | – |
| 40 nM | Cn1ccnc1CN1CCC2(CC1)COC1c3cc(Cl)ccc3OC(C)(C)C1C2 (centres unmarked) [Example 36] | – | – | – | – | – | – |
| < 10 nM | Cc1nccn1CCN1CCC2(CC1)COC1c3cc(F)ccc3OC(C)(C)C1C2 (centres unmarked) [Example 44] | >360 | 3.6 µM | good deviation | potent activity | – | – |
| < 10 nM | CC1(C)Oc2ccc(Cl)cc2C2OCC3(CCN(CCn4ccnc4CO)CC3)CC21 (centres unmarked) [Example 53] | – | – | – | potent activity | – | – |
| 2280 nM | Cc1nc(CN2CCC3(CC2)COC2c4cc(Cl)ccc4OC(C)(C)C2C3)c[nH]1 (centres unmarked) [Example 30] | 7.46 | 1.7 µM | – | – | – | – |
| 4400 nM | CC1(C)Oc2ccc(Cl)cc2C2OCC3(CCN(C(=O)Cn4cnc(CF)c4)CC3)CC21 (centres unmarked) [Example 16] | – | – | – | – | – | – |
| 90 nM | CCc1nc(C)c(CN2CCC3(CC2)COC2c4cc(Cl)ccc4OC(C)(C)C2C3)[nH]1 (centres unmarked) [Example 28] | – | – | – | – | – | – |
| 980 nM | COC(=O)c1cn(CCN2CCC3(CC2)COC2c4cc(Cl)ccc4OC(C)(C)C2C3)cn1 (centres unmarked) [Example 59] | – | – | – | – | – | – |
